From US8247530B2, “N-alkylated cyclic peptide melanocortin agonists” (Palatin Technologies, Inc., priority 2005, dated 2012)
Where a SMILES comes first, the peptide text is derived from it. Bridges are numbered along the chain shown (N, C = ends). [ ]: non-standard residue; d: D form. 1Nal = N[C@@H](Cc1cccc2ccccc12)C(=O)O; Nle = CCCC[C@H](N)C(=O)O

Tests used:
MC4-R [1] = target: T1, MC4-R (Homo sapiens, UniProt P32245); assay: Competitive inhibition binding assay using [I125]-NDP-α-MSH, hMC4-R; conditions: radioligand [I125]-NDP-α-MSH, HEK-293 membranes; read-out: Ki (NDP-α-MSH) MC4-R
T1 construct: expressed in transfected cells; host or cells: HEK-293
Protocol: (§1) The assay tube also contained a chosen concentration of the test peptide of this invention, typically a 1 μM concentration, for determining its efficacy in inhibiting the binding of [I^125]NDP-α-MSH to the receptor.
(§2) The assay mixture was incubated for 60 minutes at 37° C., then filtered and the membranes washed three times with ice cold phosphate buffered saline. The filter was dried and counted in a gamma counter for remaining radioactivity bound to the membranes. 100% specific binding was defined as the difference in radioactivity (cpm) bound to cell membranes in the absence and presence of 1 μM NDP-α-MSH. […] Each assay was conducted in triplicate. The Ki (nM) of certain peptides of the invention were determined using similar assay protocols and testing peptides over a wider dose range.

hMC5-R = target: T2, hMC5-R (Homo sapiens, UniProt P33032); assay: Competitive inhibition binding assay using [I125]-NDP-α-MSH, hMC5-R; conditions: radioligand [I125]-NDP-α-MSH, HEK-293 membranes; read-out: Ki (NDP-α-MSH) MC5-R
T2 construct: expressed in transfected cells; host or cells: HEK-293
Protocol: as §1, §2

MC3-R [2] = target: T3, MC3-R (Homo sapiens, UniProt P41968); assay: Competitive inhibition Ki (AgRP), MC3-R; format: binding; conditions: AgRP as competing ligand
T3 construct: expressed in transfected cells; host or cells: HEK-293
Protocol: as §2

hMC4-R (HEK-293 cells) = target: T4, hMC4-R (HEK-293 cells) (Homo sapiens, UniProt P32245); assay: cAMP functional assay for agonist/antagonist status, MC4-R; format: cell-based; conditions: for EC50: cAMP accumulation; for agonist/antagonist status as to MC4-R: cAMP assay; for efficacy relative to NDP-α-MSH, MC4-R: cAMP response ratio to NDP-α-MSH
T4 construct: expressed in transfected cells; host or cells: HEK-293
Protocol: (§3) Functional evaluation of peptides at melanocortin receptors was performed by measuring the accumulation of intracellular cAMP in HEK-293 cells expressing hMC3-R, hMC4-R or hMC5-R, and in B-16 mouse melanoma cells expressing MC1-R. Cells suspended in Earle's Balanced Salt Solution containing 10 mM HEPES (pH 7.5), 5 mM MgCl2, 1 mM glutamine, 0.5% albumin and 0.3 mM 3-isobutyl-1-methyl-xanthine, a phosphodiesterase inhibitor, were plated in 96 well plates at a density of 0.5×10^5 cells per well. Cells were incubated with the test peptides in the presence or absence of NDP-α-MSH for 1 hour at 37° C. cAMP levels in the cell lysates were measured using an EIA kit (Amersham). Data analysis and EC50 values were determined using nonlinear regression analysis with Prism Graph-Pad software.
(§4) The agonist/antagonist status with respect to MC1-R, MC4-R and MC5-R of certain peptides of the invention was determined. Antagonistic activity was determined by measuring the inhibition of α-MSH-induced or NDP-α-MSH-induced cAMP levels following exposure to the peptides as in the preceding descriptions.
Evaluation of the molecules to elicit a functional response in HEK-293 cells expressing hMC4-R for agonistic activity was done by measuring the accumulation of intracellular cAMP following treatment. Confluent HEK-293 cells over-expressing MC4-R receptors were detached by enzyme free cell suspension buffer. Cells were suspended in Earle's Balanced Salt Solution containing 10 mM HEPES (pH 7.5), 1 mM MgCl2, 1 mM glutamine, 0.5% albumin and 0.3 mM 3-isobutyl-1-methyl-[…]. The cells were plated in a 96 well plate at a density of 0.5×10^5 cells per well and pre-incubated for 60 minutes. The cells were then challenged with the test peptides dissolved in dimethylsulfoxide (DMSO) at a concentration range of 0.05-5000 nM in a total assay volume of 200 μL for 1 hour at 37° C. The concentration of DMSO was held at 1% in the assay mixture. NDP-α-MSH was used as the reference agonist. At the end of the incubation period the cells were disrupted by the addition of 50 μL lysis buffer from the cAMP EIA kit (Amersham). Complete rupture of the cells was ensured by pipetting the cells. cAMP levels in the cell lysates were measured after appropriate dilution using the EIA kit (Amersham) method. Data analysis and EC50 values were determined by using nonlinear regression analysis with the Prism Graph-Pad software.

male Sprague-Dawley rats = assay: Penile erection induction in male rats; format: in vivo, rat
Protocol: The ability of peptides to induce penile erection (PE) in male rats was evaluated with selected peptides. Male Sprague-Dawley rats weighing 200-250 g were kept on a 12 hour on/off light cycle with food and water ad libitum. All behavioral studies were performed between 10 a.m. and 5 p.m. Groups of 4-8 rats were administered peptides at a variety of doses via an intravenous (IV) route, and may alternatively be administered peptide by an intracerebroventricular (ICV) route. Immediately after treatment, rats were placed into individual polystyrene cages (27 cm long, 16 cm wide, and 25 cm high) for behavioral observation. […] For rats administered peptide by an ICV routes, rats are observed for two hours.
Selected peptides were tested as in Example 5. Peptide was administered by IV routes, and used at dose levels ranging from 1 μg/kg to 1000 μg/kg.

MC4-R [3] = target: T1, MC4-R; assay: Competitive inhibition Ki (AgRP), MC4-R; format: binding; conditions: AgRP as competing ligand
MC3-R [4] = target: T3, MC3-R; assay: Competitive inhibition binding assay using [I125]-NDP-α-MSH, hMC3-R; conditions: radioligand [I125]-NDP-α-MSH, HEK-293 membranes; read-out: Ki (NDP-α-MSH) MC3-R
Protocol: as §1, §2

hMC3-R (HEK-293 cells) = target: T5, hMC3-R (HEK-293 cells) (Homo sapiens, UniProt P41968); assay: cAMP functional assay for agonist/antagonist status, MC3-R; format: cell-based; conditions: for EC50: cAMP accumulation; for agonist/antagonist status as to MC3-R: cAMP assay; for efficacy relative to NDP-α-MSH, MC3-R: cAMP response ratio to NDP-α-MSH
T5 construct: expressed in transfected cells; host or cells: HEK-293
Protocol: as §3, §4

[5] = target: T6, MC1-R (B-16 mouse melanoma cells) (Mus musculus, UniProt Q01727); assay: cAMP functional assay for agonist/antagonist status, MC1-R; format: cell-based; conditions: for EC50: cAMP accumulation; for agonist/antagonist status as to MC1-R: cAMP assay; for efficacy relative to NDP-α-MSH, MC1-R: cAMP response ratio to NDP-α-MSH
T6 construct: B-16 mouse melanoma cells (containing MC1-R); endogenous in cells; host or cells: B-16 mouse melanoma cells
Protocol: Data analysis and EC50 values were determined using nonlinear regression analysis with Prism Graph-Pad software.
The agonist/antagonist status with respect to MC1-R, MC4-R and MC5-R of certain peptides of the invention was determined.

[6] = 1000 μg/kg IV, groups of 6 rats, one hour observation
[7] = peak dose 300 μg/kg IV, groups of 6 rats

T1 sequence (P32245 whole entry): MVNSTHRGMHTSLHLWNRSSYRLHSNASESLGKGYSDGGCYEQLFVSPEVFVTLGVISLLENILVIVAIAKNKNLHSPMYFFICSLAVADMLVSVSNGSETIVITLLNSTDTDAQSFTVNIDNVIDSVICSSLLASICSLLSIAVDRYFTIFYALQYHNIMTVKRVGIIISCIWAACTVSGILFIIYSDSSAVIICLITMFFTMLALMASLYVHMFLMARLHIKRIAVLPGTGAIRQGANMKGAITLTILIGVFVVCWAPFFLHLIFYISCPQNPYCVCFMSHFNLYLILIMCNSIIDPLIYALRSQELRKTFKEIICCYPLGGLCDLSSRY
T4 sequence (P32245 whole entry): as above
T6 sequence (Q01727 whole entry): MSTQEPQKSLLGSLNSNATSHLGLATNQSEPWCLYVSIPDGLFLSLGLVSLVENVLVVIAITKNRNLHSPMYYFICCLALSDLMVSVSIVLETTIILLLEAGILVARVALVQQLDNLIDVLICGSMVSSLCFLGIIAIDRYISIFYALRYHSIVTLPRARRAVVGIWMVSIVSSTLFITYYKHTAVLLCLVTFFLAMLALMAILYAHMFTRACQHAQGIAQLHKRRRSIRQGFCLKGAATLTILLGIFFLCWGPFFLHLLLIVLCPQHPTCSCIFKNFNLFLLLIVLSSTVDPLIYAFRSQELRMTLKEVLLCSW
T5 sequence (P41968 whole entry): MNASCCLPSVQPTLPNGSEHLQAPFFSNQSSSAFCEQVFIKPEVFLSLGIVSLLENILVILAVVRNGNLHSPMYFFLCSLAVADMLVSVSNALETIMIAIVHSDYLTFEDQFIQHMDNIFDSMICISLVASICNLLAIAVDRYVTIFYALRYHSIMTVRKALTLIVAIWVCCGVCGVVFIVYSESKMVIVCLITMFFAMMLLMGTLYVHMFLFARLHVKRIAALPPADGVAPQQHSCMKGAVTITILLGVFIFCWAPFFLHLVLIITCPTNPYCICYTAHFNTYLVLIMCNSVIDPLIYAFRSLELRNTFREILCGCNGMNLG
T3 sequence (P41968 whole entry): as above
T2 sequence (P33032 whole entry): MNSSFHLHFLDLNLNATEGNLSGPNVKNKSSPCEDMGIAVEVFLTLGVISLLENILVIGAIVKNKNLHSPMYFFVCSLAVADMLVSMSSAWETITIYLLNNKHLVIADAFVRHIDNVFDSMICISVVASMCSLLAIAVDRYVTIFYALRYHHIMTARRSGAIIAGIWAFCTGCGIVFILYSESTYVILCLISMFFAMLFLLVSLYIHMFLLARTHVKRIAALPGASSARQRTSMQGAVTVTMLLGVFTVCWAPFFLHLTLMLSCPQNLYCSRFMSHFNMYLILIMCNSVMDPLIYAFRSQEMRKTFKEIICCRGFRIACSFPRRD

Compound | Ki (MC4-R [1]) | Ki (hMC5-R) | Ki (MC3-R [2]) | EC50 (hMC4-R (HEK-293 cells)) | agonist/antagonist status as to MC4-R (hMC4-R (HEK-293 cells)) | rats exhibiting at least one PE (male Sprague-Dawley rats; [6]) | Ki (MC4-R [3]) | Ki (MC3-R [4]) | EC50 (hMC3-R (HEK-293 cells)) | agonist/antagonist status as to MC3-R (hMC3-R (HEK-293 cells)) | efficacy relative to NDP-α-MSH, MC4-R (hMC4-R (HEK-293 cells)) | mean PEs per rat (male Sprague-Dawley rats; [7]) | rats exhibiting at least one PE (male Sprague-Dawley rats; [7]) | EC50 [5] | agonist/antagonist status as to MC1-R [5] | efficacy relative to NDP-α-MSH, MC1-R [5] | efficacy relative to NDP-α-MSH, MC3-R (hMC3-R (HEK-293 cells)) | PE effect at 300 μg/kg compared with 1000 μg/kg (male Sprague-Dawley rats; peak dose 300 μg/kg IV)
CCCC[C@H](NC(C)=O)C(=O)N[C@H]1CC(=O)NCCCC[C@@H](C(=O)NCC)NC(=O)[C@H](Cc2c[nH]c3ccccc23)NC(=O)[C@H](CCCNC(=N)N)NC(=O)[C@@H](Cc2ccccc2)NC(=O)[C@H](Cc2c[nH]cn2)NC1=O [Example 7, Ac-Nle-cyclo(-Asp-His-D-Phe-Arg-Trp-Lys)-NH—CH2—CH3] | 0.34 nM | 5 nM | 9 nM | 0.6 nM | agonist (response ratio compared to NDP-α-MSH of 0.7 and above were classified as full agonists) | 100% | 0.15 nM | 11 nM | 3 nM | agonist (response ratio compared to NDP-α-MSH of 0.7 and above were classified as full agonists) |  |  |  |  |  |  |  | 
CCNC(=O)[C@@H]1CCCCNC(=O)C[C@H](NC(C)=O)C(=O)N[C@@H](Cc2c[nH]cn2)C(=O)N[C@H](Cc2ccccc2)C(=O)N[C@@H](CCCNC(=N)N)C(=O)N[C@@H](Cc2c[nH]c3ccccc23)C(=O)N1 [Example 12, Ac-cyclo(-Asp-His-D-Phe-Arg-Trp-Lys)-NH—CH2—CH3] |  |  | 457 nM |  | partial agonist (Peptides with a ratio from 0.1 to 0.7 were classified as partial agonists) |  | 11 nM |  | 283 nM | agonist (response ratio compared to NDP-α-MSH of 0.7 and above were classified as full agonists) | 0.6 | 2.5 | 83% | 64 nM | partial agonist (Peptides with a ratio from 0.1 to 0.7 were classified as partial agonists) | 0.6 | 1.0 | 
CCCC[C@H](NC(C)=O)C(=O)N[C@H]1CC(=O)NCCCC[C@@H](C(=O)N(C)C)NC(=O)[C@H](Cc2cccc3ccccc23)NC(=O)[C@H](CCCNC(=N)N)NC(=O)[C@@H](Cc2ccccc2)NC(=O)[C@H](Cc2c[nH]c3ccccc23)NC1=O [Example 10, Ac-Nle-cyclo(-Asp-Trp-D-Phe-Arg-Nal 1-Lys)-N(CH3)2] (Ac-[Nle]DW[dF]R[1Nal]K-NMe2; lactam 2-7 (inferred)) |  |  | > 1000 nM |  | agonist (response ratio compared to NDP-α-MSH of 0.7 and above were classified as full agonists) |  | 50 nM |  |  | inactive | 0.8 |  |  | 2300 nM | agonist (response ratio compared to NDP-α-MSH of 0.7 and above were classified as full agonists) | 1.1 |  | 
CCCC[C@H](NC(C)=O)C(=O)N[C@H]1CC(=O)NCCCC[C@@H](C(=O)NCC)NC(=O)[C@H](Cc2cccc3ccccc23)NC(=O)[C@H](CCCNC(=N)N)NC(=O)[C@@H](Cc2ccccc2)NC(=O)[C@H](Cc2c[nH]cn2)NC1=O [Example 9, Ac-Nle-cyclo(-Asp-His-D-Phe-Arg-Nal 1-Lys)-NH—CH2—CH3] |  |  |  |  | partial agonist (Peptides with a ratio from 0.1 to 0.7 were classified as partial agonists) | 100% | 7 nM |  | 208 nM | agonist (response ratio compared to NDP-α-MSH of 0.7 and above were classified as full agonists) | 0.6 |  |  | 8 nM | partial agonist (Peptides with a ratio from 0.1 to 0.7 were classified as partial agonists) | 0.6 | 1.0 | 
CCCC[C@H](NC(C)=O)C(=O)N[C@H]1CC(=O)NCCCC[C@@H](C(=O)N(C)C)NC(=O)[C@H](Cc2c[nH]c3ccccc23)NC(=O)[C@H](CCCNC(=N)N)NC(=O)[C@@H](Cc2ccccc2)NC(=O)[C@H](Cc2c[nH]cn2)NC1=O [Example 8, Ac-Nle-cyclo(-Asp-His-D-Phe-Arg-Trp-Lys)-N(CH3)2] | 0.27 nM | 7 nM |  | 0.2 nM | agonist (response ratio compared to NDP-α-MSH of 0.7 and above were classified as full agonists) | 100% | 0.5 nM | 8 nM | 17 nM | agonist (response ratio compared to NDP-α-MSH of 0.7 and above were classified as full agonists) |  |  |  |  |  |  |  | 
CCCC[C@H](NC(C)=O)C(=O)N[C@H]1CC(=O)NCCCC[C@@H](C(=O)N(C)C)NC(=O)[C@H](Cc2cccc3ccccc23)NC(=O)[C@H](CCCNC(=N)N)NC(=O)[C@@H](Cc2ccccc2)NC(=O)[C@H](Cc2c[nH]cn2)NC1=O [Example 11, Ac-Nle-cyclo(-Asp-His-D-Phe-Arg-Nal 1-Lys)-N(CH3)2] |  |  | > 1000 nM |  | agonist (response ratio compared to NDP-α-MSH of 0.7 and above were classified as full agonists) | 100% | 10 nM |  | 394 nM | agonist (response ratio compared to NDP-α-MSH of 0.7 and above were classified as full agonists) | 0.7 |  |  | 15 nM | agonist (response ratio compared to NDP-α-MSH of 0.7 and above were classified as full agonists) | 0.8 | 1.1 | the same
